{
  "source": "BigSolDB 2.1",
  "data": [
    {"compound": "O=C(O)[C@@H](O)CCc1ccccc1", "values": [
      {"measurement": "solubility (mole fraction)", "setting": "in ethyl acetate, 278.2 K", "value": 0.107},
      {"measurement": "solubility (mole fraction)", "setting": "in ethyl acetate, 283.2 K", "value": 0.117},
      {"measurement": "solubility (mole fraction)", "setting": "in ethyl acetate, 288.2 K", "value": 0.128},
      {"measurement": "solubility (mole fraction)", "setting": "in ethyl acetate, 293.2 K", "value": 0.14},
      {"measurement": "solubility (mole fraction)", "setting": "in ethyl acetate, 298.2 K", "value": 0.15},
      {"measurement": "solubility (mole fraction)", "setting": "in ethyl acetate, 303.2 K", "value": 0.16},
      {"measurement": "solubility (mole fraction)", "setting": "in ethyl acetate, 308.2 K", "value": 0.174},
      {"measurement": "solubility (mole fraction)", "setting": "in ethyl acetate, 313.2 K", "value": 0.182},
      {"measurement": "solubility (mole fraction)", "setting": "in toluene, 288.2 K", "value": 0.0013},
      {"measurement": "solubility (mole fraction)", "setting": "in toluene, 293.2 K", "value": 0.00169},
      {"measurement": "solubility (mole fraction)", "setting": "in toluene, 298.2 K", "value": 0.00235},
      {"measurement": "solubility (mole fraction)", "setting": "in toluene, 303.2 K", "value": 0.00298},
      {"measurement": "solubility (mole fraction)", "setting": "in toluene, 308.2 K", "value": 0.00407},
      {"measurement": "solubility (mole fraction)", "setting": "in toluene, 313.2 K", "value": 0.00555},
      {"measurement": "solubility (mole fraction)", "setting": "in toluene, 318.2 K", "value": 0.00729},
      {"measurement": "solubility (mole fraction)", "setting": "in toluene, 323.2 K", "value": 0.00996},
      {"measurement": "solubility (mole fraction)", "setting": "in toluene, 328.2 K", "value": 0.0127},
      {"measurement": "solubility (mole fraction)", "setting": "in toluene, 333.2 K", "value": 0.0173},
      {"measurement": "solubility (mole fraction)", "setting": "in toluene, 338.2 K", "value": 0.0238},
      {"measurement": "solubility (mole fraction)", "setting": "in toluene, 343.2 K", "value": 0.0341},
      {"measurement": "solubility (mole fraction)", "setting": "in water, 283.2 K", "value": 0.00071},
      {"measurement": "solubility (mole fraction)", "setting": "in water, 288.2 K", "value": 0.00094},
      {"measurement": "solubility (mole fraction)", "setting": "in water, 293.2 K", "value": 0.00107},
      {"measurement": "solubility (mole fraction)", "setting": "in water, 298.2 K", "value": 0.00137},
      {"measurement": "solubility (mole fraction)", "setting": "in water, 303.2 K", "value": 0.00172},
      {"measurement": "solubility (mole fraction)", "setting": "in water, 308.2 K", "value": 0.00229},
      {"measurement": "solubility (mole fraction)", "setting": "in water, 313.2 K", "value": 0.00311},
      {"measurement": "solubility (mole fraction)", "setting": "in water, 318.2 K", "value": 0.00406},
      {"measurement": "solubility (mole fraction)", "setting": "in water, 323.2 K", "value": 0.00701},
      {"measurement": "solubility (mole fraction)", "setting": "in water, 328.2 K", "value": 0.0142},
      {"measurement": "solubility (mole fraction)", "setting": "in water, 333.2 K", "value": 0.044}
    ]}
  ]
}
